In brackets after ≈: the same amount, converted by molar mass. Read-outs that look alike come from different tables or passages of the source.
How the values were obtained:
Type in all cases: cell-based
[1] = tested on: Methicillin Resistant Staphylococcus aureus strain USA 300, NRS384; assay: Minimum inhibitory concentration, broth micro-dilution (CLSI), S. aureus; details: Staphylococcus aureus, MRSA / NRS 384 / USA300, 22 h
Method in brief: (§1)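 Ten-point 2-fold series began at 4 μg/mL in protocol 2 and 0.5 μg/mL in protocol 3, in cation-adjusted MHB plus 0.002% Tween-80. Bacteria added to OD600 0.0005 final and incubated at 35° C for 22 hours per CLSI microdilution.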

[2] = tested on: Escherichia coli MC4100 harboring the IMP4213 (E. coli IMP); assay: microbe, parasite or virus in culture; details: Escherichia coli, 22 h
Method in brief: as §1

[3] = tested on: Escherichia coli ATCC 25922; assay: Minimum inhibitory concentration, broth micro-dilution (CLSI), E. coli; details: Escherichia coli, ATCC25922, 22 h
[4] = read-out: MIC (μg/mL) S. aureus
[5] = read-out: MIC (μg/mL) E. coli IMP
[6] = MRSA USA 300 NRS384, 35° C., 22 hours, read-out: MIC (μg/mL) S. aureus
[7] = read-out: MIC (μg/mL) E. coli IMP, E. coli MC4100 IMP4213, increased outer-membrane permeability, 35° C., 22 hours
[8] = E. coli ATCC 25922, 35° C., 22 hours, read-out: MIC (μg/mL) E. coli
[9] = read-out: MIC (μg/mL) S. aureus, MRSA USA 300 NRS384, 35° C., 22 hours
[10] = read-out: MIC (μg/mL) E. coli, E. coli ATCC 25922, 35° C., 22 hours

Structure (SMILES)	MIC [1, 4] [µg/mL]	MIC [2, 5] [µg/mL]	MIC ([3]; read-out: MIC (μg/mL) E. coli) [µg/mL]	MIC [1, 6] [µg/mL]	MIC [2, 7] [µg/mL]	MIC [3, 8] [µg/mL]	MIC [1, 9] [µg/mL]	MIC [3, 10] [µg/mL]
CCCCCCCc1ccc(C(=O)N(C)[C@@H](CCN)C(=O)N(C)[C@@H]2C(=O)N[C@@H](C)C(=O)N[C@H](C(=O)NCC#N)Cc3ccc(OCCN)c(c3)-c3cc2ccc3OCCN)cc1 [Compound 396]	0.094 (≈ 0.11 µM)	0.094 (≈ 0.11 µM)	16 (≈ 18.7 µM)					
CCCCc1ccc(C(=O)N(C)[C@@H](CCN)C(=O)N(C)[C@@H]2C(=O)N[C@@H](C)C(=O)N[C@H](C(=O)NCC#N)Cc3ccc(OCCN)c(c3)-c3cc2ccc3OCCN)c(C)c1 [Compound 397]				3 (≈ 3.63 µM)	0.38 (≈ 0.46 µM)	64 (≈ 77.5 µM)		
CCCCCCCCCCCC(=O)N(C)[C@@H](CCN)C(=O)N(C)[C@@H]1C(=O)N[C@@H](C)C(=O)N[C@H](C(=O)NCC#N)Cc2ccc(OCCN)c(c2)-c2cc1ccc2OCCN [Compound 398]				0.13 (≈ 0.156 µM)	0.13 (≈ 0.156 µM)	16 (≈ 19.2 µM)		
CCCCCCCCCC(=O)N[C@@H](CO)C(=O)N(C)[C@@H](CCN)C(=O)N(C)[C@@H]1C(=O)N[C@@H](C)C(=O)N[C@H](C(=O)NCC#N)Cc2ccc(OCCN)c(c2)-c2cc1ccc2OCCN [Compound 399]					0.19 (≈ 0.213 µM)		0.25 (≈ 0.28 µM)	16 (≈ 17.9 µM)
CCCCCCCCNC(=O)N[C@@H](CCN)C(=O)N(C)[C@@H]1C(=O)N[C@@H](C)C(=O)N[C@H](C(=O)NCC#N)Cc2ccc(OCCN)c(c2)-c2cc1ccc2OCCN [Compound 402]				0.38 (≈ 0.479 µM)	0.19 (≈ 0.24 µM)	32 (≈ 40.4 µM)		
CCCCCCCCc1ccc(C(=O)N[C@@H](CCN)C(=O)N(C)[C@@H]2C(=O)N[C@@H](C)C(=O)N[C@H](C(=O)NCC#N)Cc3ccc(OCCN)c(c3)-c3cc2ccc3OCCN)c(OCC(=O)O)c1 [Compound 409]				0.25 (≈ 0.269 µM)	< 0.0039	0.5 (≈ 0.539 µM)		
CCCCCCCCc1ccc(C(=O)N[C@@H](CCN)C(=O)N(C)[C@@H]2C(=O)N[C@@H](C)C(=O)N[C@H](C(=O)NCC#N)Cc3ccc(OCCN)c(c3)-c3cc2ccc3OCCN)c(OCC(=O)NCC#N)c1 [Compound 410]				0.13 (≈ 0.135 µM)	0.13 (≈ 0.135 µM)	6 (≈ 6.21 µM)		
Cc1cc(-n2cccn2)ccc1C(=O)N[C@@H](CCN)C(=O)N(C)[C@@H]1C(=O)N[C@@H](C)C(=O)N[C@H](C(=O)NCC#N)Cc2ccc(OCCN)c(c2)-c2cc1ccc2OCCN [Compound 411]	2 (≈ 2.43 µM)	0.5 (≈ 0.608 µM)	16 (≈ 19.5 µM)					
CCCCCCCCc1ccc(C(=O)N[C@@H](CCN)C(=O)N(C)[C@@H]2C(=O)N[C@@H](C)C(=O)N[C@H](C(=O)NCC#N)Cc3ccc(OCCN)c(c3)-c3cc2ccc3OCCN)c(/C=C/C(=O)O)c1 [Compound 414]	0.5 (≈ 0.541 µM)	0.25 (≈ 0.271 µM)	64 (≈ 69.3 µM)					
C[C@@H]1NC(=O)[C@@H](N(C)C(=O)[C@H](CCCCN)NC(=O)c2ccc(-c3ccc(Cl)cc3)cc2)c2ccc(O)c(c2)-c2cc(ccc2O)C[C@@H](C(=O)NCC#N)NC1=O [Compound 416]					2 (≈ 2.52 µM)		0.5 (≈ 0.629 µM)	> 64
C[C@@H]1NC(=O)[C@@H](N(C)C(=O)[C@H](CCCCN)NC(=O)c2ccc(-c3ccc(Cl)cc3)cc2)c2ccc(O)c(c2)-c2cc(ccc2O)C[C@@H](C(=O)N[C@@H](C)C#N)NC1=O [Compound 417]				13 (≈ 16.1 µM)	4 (≈ 4.95 µM)	> 64		
C[C@@H]1NC(=O)[C@@H](N(C)C(=O)[C@H](CCCCN)NC(=O)c2ccc(-c3ccc(Cl)cc3)cc2)c2ccc(O)c(c2)-c2cc(ccc2O)C[C@@H](C(=O)N[C@H](C#N)CO)NC1=O [Compound 418]				4 (≈ 4.85 µM)	> 4	> 64		
CCCCCCCCCCCC(=O)N[C@@H](CO)C(=O)N(C)[C@@H]1C(=O)N[C@@H](C)C(=O)N[C@H](C(=O)N[C@H](C#N)CC)Cc2ccc(OCCN)c(c2)-c2cc1ccc2OCCN [Compound 419]	4 (≈ 4.79 µM)	0.75 (≈ 0.898 µM)	32 (≈ 38.3 µM)					
Cc1cc(C(C)C)ccc1C(=O)N[C@@H](CCN)C(=O)N(C)[C@@H]1C(=O)N[C@@H](C)C(=O)N[C@H](C(=O)NCC#N)Cc2ccc(OCCN)c(c2)-c2cc1ccc2OCCN [Compound 433]					0.094 (≈ 0.118 µM)		0.5 (≈ 0.627 µM)	4 (≈ 5.01 µM)
Cc1cc(C2(C)CC2)ccc1C(=O)N[C@@H](CCN)C(=O)N(C)[C@@H]1C(=O)N[C@@H](C)C(=O)N[C@H](C(=O)NCC#N)Cc2ccc(OCCN)c(c2)-c2cc1ccc2OCCN [Compound 435]				0.5 (≈ 0.617 µM)	0.063 (≈ 0.0778 µM)	4 (≈ 4.94 µM)		
Cc1cc(C2CC(c3ccccc3)C2)ccc1C(=O)N[C@@H](CCN)C(=O)N(C)[C@@H]1C(=O)N[C@@H](C)C(=O)N[C@H](C(=O)NCC#N)Cc2ccc(OCCN)c(c2)-c2cc1ccc2OCCN (stereo partly drawn) [Compound 441]				0.063 (≈ 0.0711 µM)	0.016 (≈ 0.0181 µM)	1 (≈ 1.13 µM)		

— patent US20180327367A1, “MACROCYCLIC BROAD SPECTRUM ANTIBIOTICS” (priority 2015, published 2018)
